Where “and” joins values, the source holds several entries; their conditions need not be identical. Equal values may be shown once. Read-outs that look alike come from different tables or passages of the source.
Target: CT-L activity of purified 20S proteasome (Homo sapiens, UniProt P20618+P28074)
Assay: in vitro CT-L activity of purified 20S proteasome
Assay type: biochemical
Details: for inhibition at 10 µM: Table 5, @ 10 μM, read-out: Screening Results (% Inhibition @ 10 μM) Chymotrypsin-like; for fold improved CT-L activity: compared to the hit 1 (PI-1833); for fold loss of CT-L activity: compared to 11ad or 11ae
[1] = Table 5, read-out: IC50 (μM) Chymotrypsin-like
[2] = Table 3, read-out: IC50 (μM) CT-L
[3] = Table 1, read-out: IC50 (μM) Chymotrypsin-like activity

| Structure (SMILES) | IC50 (read-out: IC50, in vitro CT-L) [µM] | IC50 [3] [µM] | also measured |
| --- | --- | --- | --- |
| Cc1ccc(-c2noc(CN(C(=O)COc3ccc(C(C)C)cc3)C(C)C)n2)cc1 | – | – | IC50 [1]: 4.12 ± 0.09 µM |
| CC(C)c1ccc(OCC(=O)N(Cc2nc(-c3ccc(Cl)cc3)no2)C(C)C)cc1 | – | – | IC50 [1]: 5.13 ± 0.09 µM |
| CC(C)N(Cc1nc(-c2ccccc2)no1)C(=O)CCl | – | – | inhibition at 10 µM: -53 ± 23.4% |
| Cc1ccc(OC(C)C(=O)N(Cc2nc(-c3ccccc3)no2)C(C)C)cc1 (stereo not drawn) | – | – | inhibition at 10 µM: 92.43 ± 0.82%; IC50 [1]: 0.92 ± 0.21 µM |
| Cc1ccc(OC(C)C(=O)N(Cc2nc(-c3cccnc3)no2)C(C)C)cc1 (stereo not drawn) | – | – | inhibition at 10 µM: 92.9 ± 1.7%; IC50 [1]: 0.38 ± 0.099 µM |
| Cc1ccc(OCC(=O)N(Cc2coc(-c3ccccc3)n2)C(C)C)cc1 | – | – | IC50 [1]: 0.14 ± 0.003 µM |
| CCCc1ccc(O[C@H](C)C(=O)N(Cc2nc(-c3cccnc3)no2)C(C)C)cc1 | – | – | IC50 [1]: 2.39 µM and 1.99 µM |
| CCCc1ccc(OC(C)C(=O)N(Cc2nc(-c3cccnc3)no2)C(C)C)cc1 (racemic) [drawing 177] | – | – | IC50 [1]: 0.289 µM |
| CCCc1ccc(O[C@@H](C)C(=O)N(Cc2nc(-c3cccnc3)no2)C(C)C)cc1 (single isomer, unassigned) [16f] | – | – | IC50 [2]: 2.18 ± 0.28 µM |
| CCCc1ccc(O[C@@H](C)C(=O)N(Cc2nc(-c3cccnc3)no2)C(C)C)cc1 (single isomer, unassigned) [drawing 176] | – | – | IC50 [1]: 0.075 µM |
| Cc1ccc(-c2noc(CN(C(=O)COc3ccc(C(F)(F)F)cc3)C(C)C)n2)cc1 [11a, N-Isopropyl-N-((3-p-tolyl-1,2,4-oxadiazol-5-yl)methyl)-2-(4-(trifluoromethyl)phenoxy)acetamide] | ~1 | 1.08 ± 0.33 | – |
| CCc1ccc(OCC(=O)N(Cc2nc(-c3ccccc3)no2)C(C)C)cc1 [11aa, 2-(4-Ethylphenoxy)-N-isopropyl-N-((3-phenyl-1,2,4-oxadiazol-5-yl)methyl)acetamide] | 0.26 ± 0.05 | 0.267 ± 0.05 | fold improved CT-L activity: 2 fold |
| CCc1ccc(OCC(=O)N(Cc2nc(-c3cccnc3)no2)C(C)C)cc1 [11ab, 2-(4-Ethylphenoxy)-N-isopropyl-N-((3-pyridin-3-yl)1,2,4-oxadiazol-5-yl)methylacetamide] | 0.099 ± 0.03 | – | fold improved CT-L activity: 6 fold |
| CC(C)N(Cc1nc(-c2cccnc2)no1)C(=O)COc1ccccc1 [11ac, N-Isopropyl-2-phenoxy-N-((3-(pyridine-3-yl)-1,2,4-oxadiazol-5-yl)methyl)acetamide] | 3.12 ± 1.11 | – | – |
| CCCCc1ccc(OCC(=O)N(Cc2nc(-c3cccnc3)no2)C(C)C)cc1 [11ae, 2-(4-Butylphenoxy)-N-isopropyl-N-((3-(pyridine-3-yl)-1,2,4-oxadiazol-5-yl)methyl)acetamide] | 0.039 | – | fold improved CT-L activity: 20 fold |
| CCCCCc1ccc(OCC(=O)N(Cc2nc(-c3cccnc3)no2)C(C)C)cc1 [11af] | – | 0.121 ± 0.04 | fold loss of CT-L activity: 4 fold |
| CCCCCCc1ccc(OCC(=O)N(Cc2nc(-c3cccnc3)no2)C(C)C)cc1 [11ag, 2-(4-Hexylphenoxy)-N-isopropyl-N-((3-(pyridine-3-yl)-1,2,4-oxadiazol-5-yl)methyl)acetamide] | – | 0.428 ± 0.038 | fold loss of CT-L activity: 13 fold |
| CC(C)N(Cc1nc(-c2cccnc2)no1)C(=O)COc1ccc(C2CCCCC2)cc1 [11ah] | – | 1.36 ± 0.184 | fold loss of CT-L activity: 40 fold |
| CC(C)c1ccc(OCC(=O)N(Cc2nc(-c3cccnc3)no2)C(C)C)cc1 [11ai, N-Isopropyl-2-(4-isopropylphenoxy)-N-((3-(pyridin-3-yl)-1,2,4-oxadiazol-5-yl)methyl)acetamide] | – | 0.436 ± 0.073 | CT-L inhibitory activity, in words: failed to improve the CT-L activity |
| CC(C)N(Cc1nc(-c2cccnc2)no1)C(=O)COc1ccc(C(C)(C)C)cc1 [11aj, N-Isopropyl-2-(4-tert-butylphenoxy)-N-((3-(pyridin-3-yl)-1,2,4-oxadiazol-5-yl)methyl)acetamide] | – | 65.9 ± 33.7 | CT-L inhibitory activity, in words: failed to improve the CT-L activity; fold loss of CT-L activity: > 35 fold |
| CC(C)Cc1ccc(OCC(=O)N(Cc2nc(-c3cccnc3)no2)C(C)C)cc1 [11ak, N-Isopropyl-2-(4-isobutylphenoxy)-N-((3-(pyridin-3-yl)-1,2,4-oxadiazol-5-yl)methyl)acetamide] | – | 0.14 ± 0.052 | CT-L inhibitory activity, in words: failed to improve the CT-L activity |
| CCCc1ccc(OCC(=O)N(Cc2nc(-c3cncnc3)no2)C(C)C)cc1 [11al] | 0.032 | – | – |
| CCCc1ccc(OCC(=O)N(Cc2nc(-c3cnccn3)no2)C(C)C)cc1 [11am, N-Isopropyl-2-(4-propylphenoxy)-N-((3-(pyrazin-2-yl)-1,2,4-oxadiazol-5-yl)methyl)acetamide] | – | 0.105 ± 0.031 | fold loss of CT-L activity: 3 fold |
| CCCCc1ccc(OCC(=O)N(Cc2nc(-c3cnccn3)no2)C(C)C)cc1 [11an] | – | 0.107 ± 0.013 | fold loss of CT-L activity: 3 fold |
| CCCc1ccc(OCC(=O)N(Cc2nc(-c3ncccn3)no2)C(C)C)cc1 [11ao, N-Isopropyl-2-(4-propylphenoxy)-N-((3-(pyrimidin-2-yl)-1,2,4-oxadiazol-5-yl)methyl)acetamide] | 1.26 | 1.27 ± 0.226 | fold loss of CT-L activity: 40 fold |
| CC(C)N(Cc1nc(-c2ccccc2)no1)C(=O)COc1ccc(C(=O)OC(C)(C)C)cc1 [11aq, tert-Butyl 4-(2-(isopropyl((3-phenyl-1,2,4-oxadiazol-5-yl)methyl)amino)-2-oxoethoxy)benzoate] | – | > 10 | – |

More lines, main results first:

| IC50 (read-out: IC50, in vitro CT-L) [µM] | IC50 [3] [µM] | Structure (SMILES) | also measured |
| --- | --- | --- | --- |
| 0.318 | – | Cc1ccc(OC(C)C(=O)N(Cc2nc(-c3cccnc3)no2)C(C)C)cc1 (racemic) [16a] | IC50 [2]: 0.38 ± 0.099 µM |
| 0.289 | – | CCCc1ccc(OC(C)C(=O)N(Cc2nc(-c3cccnc3)no2)C(C)C)cc1 (racemic) [16d, N-Isopropyl-2-(4-propylphenoxy)-N-((3-(pyridine-3-yl)-1,2,4-oxadiazol-5-yl)methyl)propanamide] | – |
| 0.3 to 0.5 | 0.43 ± 0.12 | CC(C)N(Cc1nc(-c2ccccc2)no1)C(=O)COc1ccc(C(F)(F)F)cc1 [11b, N-Isopropyl-N-((3-phenyl-1,2,4-oxadiazol-5-yl)methyl)-2-(4-(trifluoromethyl)phenoxy)acetamide] | – |
| 2.53 | – | CC(C)N(Cc1nc(-c2ccc(C(F)(F)F)cc2)no1)C(=O)COc1ccc(C(F)(F)F)cc1 [11c, N-Isopropyl-2-(4-(trifluoromethyl)phenoxy)-N-((3-(4-(trifluoromethyl)phenyl)-1,2,4-oxadiazol-5-yl)methyl)acetamide] | – |
| ~1 | 0.857 ± 0.35 | CC(C)N(Cc1nc(-c2ccc(Cl)cc2)no1)C(=O)COc1ccc(C(F)(F)F)cc1 [11d, N-((3-(4-chlorophenyl)-1,2,4-oxadiazol-5-yl)methyl)-N-isopropyl-2-(4-(trifluoromethyl)phenoxy)acetamide] | – |
| ~1 | 1.12 ± 0.33 | Cc1ccc(-c2noc(CN(C(=O)COc3ccc(Cl)cc3)C(C)C)n2)cc1 [11e, 2-(4-Chlorophenoxy)-N-isopropyl-N-((3-p-tolyl-1,2,4-oxadiazol-5-yl)methyl)acetamide] | – |
| ~1 | 1.4 ± 0.185 | CC(C)N(Cc1nc(-c2ccc(C(F)(F)F)cc2)no1)C(=O)COc1ccc(Cl)cc1 [11f, 2-(4-Chlorophenoxy)-N-isopropyl-N-((3-(4-(trifluoromethyl)phenyl)-1,2,4-oxadiazol-5-yl)methyl)acetamide] | – |
| 1.07 | – | CC(C)N(Cc1nc(-c2ccc(Cl)cc2)no1)C(=O)COc1ccc(Cl)cc1 [11g, 2-(4-Chlorophenoxy)-N-((3-(4-chlorophenyl)-1,2,4-oxadiazol-5-yl)methyl)-N-isopropylacetamide] | – |

— patent publication US9878999B2, “Proteasome chymotrypsin-like inhibition using PI-1833 analogs” (H. Lee Moffitt Cancer Center and Research Institute, Inc., priority 2011, dated 2018)
